Experiments:
Kuramochi cells = experiment: BrdU cell proliferation assay (colorimetric ELISA), Kuramochi cells; type: cell-based; settings: class symbols A-D
Method in brief: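 Proliferation was read as BrdU incorporation: a 1 h pulse, then fixation and peroxidase-antibody ELISA at 450 nm, with values normalized to DMSO after empty-well subtraction. Treatment lasted 4 days on Kuramochi cells seeded at 2,000/well, using four 3-fold compound dilutions from 10 mM stocks. RB^KO Kuramochi cells were run in parallel for specificity.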

CDK2/Cyclin E1(14-475) = CDK2/Cyclin E1(14-475) (Homo sapiens, UniProt P24941); experiment: Caliper LabChip EZ Reader mobility shift assay, inhibition of CDK2/Cyclin E1 activity; type: biochemical; settings: class symbols A-D
Method in brief: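 Mobility-shift readout of fluorescent peptide (1.5 μM final) phosphorylation by 2.5 nM CDK2/Cyclin E1(14-475) at 100 μM ATP, pH 7.5. Compounds pre-incubated 30 min with enzyme before substrate addition; 100-min reaction halted by EDTA, normalized % activity fitted to four-parameter curve for IC50.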

Row | IC50 (CDK2/Cyclin E1(14-475)) | Structure (SMILES) | IC50 (Kuramochi cells)
1 | 0.5 to 5 µM | CNC(=O)[C@@H](CCCC(C)(C)C)NC(=O)C1CN(C(=O)Cc2c[nH]c3cc(Cl)ccc23)CC2CN(C(=O)c3ccc(OC(C)C)c(OC)c3)CC21 (some centres unmarked) [I-95] | > 10 µM
2 | 0.5 to 5 µM | CNC(=O)[C@H](CCCC(C)C)NC(=O)C1CN(C(=O)Cc2c[nH]c3cc(Cl)ccc23)CC2CN(C(=O)c3ccc(OC(C)C)c(OC)c3)CC21 (some centres unmarked) [I-97] | > 10 µM
3 | 5 to 10 µM | CNC(=O)[C@@H](CCCC1CCCCC1)NC(=O)C1CN(C(=O)Cc2c[nH]c3cc(Cl)ccc23)CC2CN(C(=O)c3ccc(OC(C)C)c(OC)c3)CC21 (some centres unmarked) [I-112] | > 10 µM
4 | 0.5 to 5 µM | CNC(=O)[C@H](CCCC1CCCCC1)NC(=O)C1CN(C(=O)Cc2c[nH]c3cc(Cl)ccc23)CC2CN(C(=O)c3ccc(OC(C)C)c(OC)c3)CC21 (some centres unmarked) [I-113] | > 10 µM
5 | > 10 µM | CNC(=O)[C@@H](CCCC(C)C)NC(=O)C1CN(C(=O)Cc2c[nH]c3cc(Cl)ccc23)CC2CN(C(=O)c3ccc(OC(C)C)c(OC)c3)CC21 (some centres unmarked) [I-114] | > 10 µM
6 | > 10 µM | CNC(=O)[C@H](CCCC1CCC(O)CC1)NC(=O)C1CN(C(=O)Cc2c[nH]c3cc(Cl)ccc23)CC2CN(C(=O)c3ccc(OC(C)C)c(OC)c3)CC21 (some centres unmarked) [I-116] | > 10 µM
7 | 0.5 to 5 µM | CNC(=O)[C@H](CCCc1ccccc1O)NC(=O)C1CN(C(=O)Cc2c[nH]c3cc(Cl)ccc23)CC2CN(C(=O)c3ccc(OC(C)C)c(OC)c3)CC21 (some centres unmarked) [I-127] | > 10 µM
8 | 5 to 10 µM | CNC(=O)[C@H](CCCc1cccc(O)c1)NC(=O)C1CN(C(=O)Cc2c[nH]c3cc(Cl)ccc23)CC2CN(C(=O)c3ccc(OC(C)C)c(OC)c3)CC21 (some centres unmarked) [I-128] | 0.5 to 5 µM
9 | 0.5 to 5 µM | CNC(=O)[C@H](CCCC1CCOCC1)NC(=O)C1CN(C(=O)Cc2c[nH]c3cc(Cl)ccc23)CC2CN(C(=O)c3ccc(OC(C)C)c(OC)c3)CC21 (some centres unmarked) [I-130] | > 10 µM
10 | 5 to 10 µM | CNC(=O)[C@@H](CCCC1CCOCC1)NC(=O)C1CN(C(=O)Cc2c[nH]c3cc(Cl)ccc23)CC2CN(C(=O)c3ccc(OC(C)C)c(OC)c3)CC21 (some centres unmarked) [I-131] | 0.5 to 5 µM
11 | 0.5 to 5 µM | CNC(=O)[C@@H](CCCC1CCCC1)NC(=O)C1CN(C(=O)Cc2c[nH]c3cc(Cl)ccc23)CC2CN(C(=O)c3ccc(OC(C)C)c(OC)c3)CC21 (some centres unmarked) [I-132] | > 10 µM
12 | > 10 µM | CNC(=O)[C@@H](CCCC1CCC(O)CC1)NC(=O)C1CN(C(=O)Cc2c[nH]c3cc(Cl)ccc23)CC2CN(C(=O)c3ccc(OC(C)C)c(OC)c3)CC21 (some centres unmarked) [I-142] | > 10 µM

More lines, now with the values behind:

Row | Structure (SMILES) | IC50 (CDK2/Cyclin E1(14-475)) | IC50 (Kuramochi cells)
13 | COc1cc(C(=O)N2CC3CN(C(=O)Cc4c[nH]c5cc(Cl)ccc45)CC(C(=O)N[C@@H](C)C(=O)NCCCc4ccccc4)C3C2)ccc1OC(C)C (some centres unmarked) [I-98] | 0.5 to 5 µM | > 10 µM
14 | COc1cc(C(=O)N2CC3CN(C(=O)Cc4c[nH]c5cc(Cl)ccc45)CC(C(=O)NCC(=O)NCCCc4ccccc4)C3C2)ccc1OC(C)C (centres unmarked) [I-99] | 0.5 to 5 µM | > 10 µM
15 | CNC(=O)[C@@H](NC(=O)C1CN(C(=O)Cc2c[nH]c3cc(Cl)ccc23)CC2CN(C(=O)c3ccc(OC(C)C)c(OC)c3)CC21)[C@@H](C)OCc1ccccc1 (some centres unmarked) [I-102] | 0.5 to 5 µM | > 10 µM
16 | COc1cc(C(=O)N2CC3CN(C(=O)Cc4c[nH]c5cc(Cl)ccc45)CC(C(=O)N[C@@H](C)C(=O)N(C)CCCc4ccccc4)C3C2)ccc1OC(C)C (some centres unmarked) [I-103] | 0.5 to 5 µM | > 10 µM
17 | CNC(=O)[C@@H](CCCC1CCC(C(F)(F)F)CC1)NC(=O)C1CN(C(=O)Cc2c[nH]c3cc(Cl)ccc23)CC2CN(C(=O)c3ccc(OC(C)C)c(OC)c3)CC21 (some centres unmarked) [I-104] | > 10 µM | > 10 µM
18 | CNC(=O)[C@H](NC(=O)C1CN(C(=O)Cc2c[nH]c3cc(Cl)ccc23)CC2CN(C(=O)c3ccc(OC(C)C)c(OC)c3)CC21)[C@H](C)OCc1ccccc1 (some centres unmarked) [I-105] | > 10 µM | > 10 µM
19 | CNC(=O)[C@@H](NC(=O)C1CN(C(=O)Cc2c[nH]c3cc(Cl)ccc23)CC2CN(C(=O)c3ccc(OC(C)C)c(OC)c3)CC21)[C@H](C)OCC1CCCCC1 (some centres unmarked) [I-107] | ≤ 0.5 µM | 0.5 to 5 µM
20 | CNC(=O)[C@H](NC(=O)C1CN(C(=O)Cc2c[nH]c3cc(Cl)ccc23)CC2CN(C(=O)c3ccc(OC(C)C)c(OC)c3)CC21)[C@@H](C)OCC1CCCCC1 (some centres unmarked) [I-108] | > 10 µM | > 10 µM
21 | COc1cc(C(=O)N2CC3CN(C(=O)Cc4c[nH]c5cc(Cl)ccc45)CC(C(=O)N[C@@H](CCCc4ccccc4)C(N)=O)C3C2)ccc1OC(C)C (some centres unmarked) [I-109] | 0.5 to 5 µM | > 10 µM
22 | CNC(=O)[C@H](CCCc1ccc(O)cc1)NC(=O)C1CN(C(=O)Cc2c[nH]c3cc(Cl)ccc23)CC2CN(C(=O)c3ccc(OC(C)C)c(OC)c3)CC21 (some centres unmarked) [I-115] | 5 to 10 µM | > 10 µM
23 | CNC(=O)[C@H](CCCc1cccnc1)NC(=O)C1CN(C(=O)Cc2c[nH]c3cc(Cl)ccc23)CC2CN(C(=O)c3ccc(OC(C)C)c(OC)c3)CC21 (some centres unmarked) [I-126] | 0.5 to 5 µM | > 10 µM
24 | CNC(=O)[C@H](NC(=O)C1CN(C(=O)Cc2c[nH]c3cc(Cl)ccc23)CC2CN(C(=O)c3ccc(OC(C)C)c(OC)c3)CC21)[C@H](C)OCC1CCCCC1 (some centres unmarked) [I-129] | > 10 µM | > 10 µM
25 | CNC(=O)[C@H](CCCc1ccc(C(F)(F)F)cc1)NC(=O)C1CN(C(=O)Cc2c[nH]c3cc(Cl)ccc23)CC2CN(C(=O)c3ccc(OC(C)C)c(OC)c3)CC21 (some centres unmarked) [I-133] | 0.5 to 5 µM | > 10 µM
26 | CNC(=O)[C@@H](CCCc1ccc(C(F)(F)F)cc1)NC(=O)C1CN(C(=O)Cc2c[nH]c3cc(Cl)ccc23)CC2CN(C(=O)c3ccc(OC(C)C)c(OC)c3)CC21 (some centres unmarked) [I-134] | > 10 µM | > 10 µM
27 | CNC(=O)C(NC(=O)C1CN(C(=O)Cc2c[nH]c3cc(Cl)ccc23)CC2CN(C(=O)c3ccc(OC(C)C)c(OC)c3)CC21)[C@@H](C)OCC1CCCCC1 (some centres unmarked) [I-135] | ≤ 0.5 µM | 0.5 to 5 µM
28 | CNC(=O)[C@H](C/C=C/c1ccccc1)NC(=O)C1CN(C(=O)Cc2c[nH]c3cc(Cl)ccc23)CC2CN(C(=O)c3ccc(OC(C)C)c(OC)c3)CC21 (some centres unmarked) [I-136] | 0.5 to 5 µM | > 10 µM
29 | CNC(=O)[C@H](CC#Cc1ccccc1)NC(=O)C1CN(C(=O)Cc2c[nH]c3cc(Cl)ccc23)CC2CN(C(=O)c3ccc(OC(C)C)c(OC)c3)CC21 (some centres unmarked) [I-137] | > 10 µM | > 10 µM
30 | CNC(=O)[C@H](CCCc1ccncc1)NC(=O)C1CN(C(=O)Cc2c[nH]c3cc(Cl)ccc23)CC2CN(C(=O)c3ccc(OC(C)C)c(OC)c3)CC21 (some centres unmarked) [I-138] | > 10 µM | > 10 µM
31 | CNC(=O)[C@H](CCCc1cccc2[nH]nnc12)NC(=O)C1CN(C(=O)Cc2c[nH]c3cc(Cl)ccc23)CC2CN(C(=O)c3ccc(OC(C)C)c(OC)c3)CC21 (some centres unmarked) [I-139] | 0.5 to 5 µM | > 10 µM
32 | CNC(=O)[C@H](CCCC1CCCCCC1)NC(=O)C1CN(C(=O)Cc2c[nH]c3cc(Cl)ccc23)CC2CN(C(=O)c3ccc(OC(C)C)c(OC)c3)CC21 (some centres unmarked) [I-140] | 0.5 to 5 µM | > 10 µM
33 | CNC(=O)[C@@H](CCCC1CCCCCC1)NC(=O)C1CN(C(=O)Cc2c[nH]c3cc(Cl)ccc23)CC2CN(C(=O)c3ccc(OC(C)C)c(OC)c3)CC21 (some centres unmarked) [I-141] | > 10 µM | 5 to 10 µM
34 | CNC(=O)[C@H](CCCc1ccc2[nH]nnc2c1)NC(=O)C1CN(C(=O)Cc2c[nH]c3cc(Cl)ccc23)CC2CN(C(=O)c3ccc(OC(C)C)c(OC)c3)CC21 (some centres unmarked) [I-143] | > 10 µM | > 10 µM

Reference: US12053459B2, “CDK2 inhibitors and methods of using the same” (Cedilla Therapeutics, Inc., priority 2021, dated 2024)
